In US20260224714A1, “CYCLING LYSOSOMAL TARGETING ANTIBODY CONJUGATES” (Lycia Therapeutics, Inc., priority 2023, published 2026):

Tests used:
Type in all cases: cell-based
[1] = tested on: LysoLight-labelled human IgE; test: Lysosomal degradation of LysoLight-labelled IgE in HepG2 cells, live cell imaging (Example 7); settings: equimolar conjugate:LysoLight IgE, area under the curve of deep red fluorescence over three days, normalized to unconjugated parent protein
In short: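 Conjugate precomplexed 30 min at room temperature with equimolar LysoLight-labelled human IgE, added to Fc-receptor-blocked HepG2 cells at final 100–1.23 nM. Red fluorescence, released on lysosomal cathepsin cleavage, imaged hourly for 72 h starting 1 h post-addition; area under the fluorescence–time curve taken as total degradation.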

recombinant IgE = test: Degradation of super-stoichiometric levels of target in HepG2 cells (Example 13, Table 31); settings: 1 nM conjugate and 25 nM IgE for three days, (A-B)/C IgE depleted relative to conjugate, average of two replicate wells
In short: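 HepG2 cells in EMEM/10% FBS were incubated with 1 nM conjugate plus 25 nM recombinant IgE for 72 h. IgE in medium at start and end quantified by MSD/ELISA-type assay; value is molar equivalents IgE depleted per conjugate, (initial − day-3 IgE)/conjugate concentration, mean of two wells.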

HepG2 cells = test: Externalization of conjugates from a cell following internalization (cycling), high-throughput format (Example 11); settings: 50 nM conjugate 1 hour, stringent washes, Alexa Fluor 647-labelled a-human IgG 1 hour, FACS, normalized to unconjugated parent protein, average of two replicate wells
In short: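 25,000 HepG2 cells incubated with conjugate for 1 h at indicated concentrations, then chilled and washed (DPBS, pH 5.2 acetate, pH 2.5 EBSS) to strip surface conjugate. Recycled conjugate captured by 1 μg/ml AF647 anti-human IgG in 37 °C EMEM for 1 h; median AF647 by flow cytometry, mean of two wells.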

[2] = tested on: Alexa Fluor647 labelled human IgE; test: Uptake assay: internalization of Alexa Fluor 647 labelled IgE in wild type HepG2 cells (Example 6); settings: equimolar conjugate and AF647 IgE, 2 hours, median cellular AF647 intensity by flow cytometry, normalized to unconjugated parent protein
In short: (§1)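 HepG2 cells (wild type or ASGPR1/2 KO) pre-blocked with Fc receptor blocker, then exposed 2 h to conjugate precomplexed equimolar with AF647-labelled human IgE (30 min, room temperature) at 300 nM to 1.23 nM final. Median cellular AF647 by flow cytometry, normalized to unconjugated parent protein.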

[3] = tested on: Alexa Fluor647 labelled human IgE; test: Uptake assay: internalization of Alexa Fluor 647 labelled IgE in ASGPR1/2 KO HepG2 cells (Example 6); settings: equimolar conjugate and AF647 IgE, normalized to unconjugated parent protein
In short: as §1

human IgE = test: Degradation of initial and subsequent dose of target in HepG2 cells (Example 12, Table 30); settings: normalized to unconjugated; for Normalized Fluorescence Post Wash Median Green: after wash, probe-conjugated IgE added for 4 hours, subsequent dose of target; for Normalized Fluorescence Precomplex Median Deep Red: precomplexed equimolar conjugate:IgE (cathepsin-cleavable quenched fluorescent probe) added for 2 hours, initial dose of target
In short: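 HepG2 cells exposed 2 h to conjugate precomplexed (30 min, 37 °C, equimolar) with 647-quenched-probe human IgE, acid/ice washed, then given 488-probe IgE without conjugate for 4 h. Median 647 (initial) and 488 (recycled) fluorescence by flow cytometry, normalised to unconjugated parent; mean of two wells.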

SMILES | Normalized Fluorescence 3.7 nM [1] | Normalized Fluorescence 100 nM [1] | Average Degradation (Molar equivalents) (recombinant IgE) | Normalized Fluorescence (HepG2 cells) | Normalized Fluorescence 3.7 nM WT [2] | Normalized Fluorescence 100 nM WT [2] | Normalized Fluorescence 100 nM ASGPR KO [3] | Normalized Fluorescence Post Wash Median Green (human IgE) | Normalized Fluorescence Precomplex Median Deep Red (human IgE)
CC(=O)N[C@@H]1[C@@H](O)[C@@H](O)[C@@H](CO)O[C@@H]1CCCOCCOCCNC(=O)NCCOCCOCCOCCOCCOCCNC(=O)c1ccc(N2C(=O)C=CC2=O)cc1 [Compound 2319-C, N-(29-((2R,3R,4R,5R,6R)-3-acetamido-4,5-dihydroxy-6-(hydroxymethyl)tetrahydro-2H-pyran-2-yl)-19-oxo-3,6,9,12,15,23,26-heptaoxa-18,20-diazanonacosyl)-4-(2,5-dioxo-2,5-dihydro-1H-pyrrol-1-yl)benzamide] | 1.1 | 1.0 | 2.1 | 5.0 | 2.3 | 16.0 | 1.4 | 1.1 | 1.2
CCC[C@H]1O[C@H](COC)[C@H](O)[C@H](O)[C@H]1Nc1nccc(OCCOCCOCCNC(=O)NCCCC(CCCNC(=O)NCCOCCOCCOc2ccnc(N[C@@H]3[C@@H](O)[C@@H](O)[C@@H](COC)O[C@@H]3CCC)n2)(CCCNC(=O)NCCOCCOCCOc2ccnc(N[C@@H]3[C@@H](O)[C@@H](O)[C@@H](COC)O[C@@H]3CCC)n2)NC(=O)CCOCCOCCOCCNS(=O)(=O)c2ccc(N3C(=O)C=CC3=O)cc2)n1 [Compound 2326] | 17.2 | 3.7 | 9.0 | 57.7 | 89.7 | 287.9 | 1.1 | 4.1 | 4.1
CC(=O)N[C@@H]1[C@@H](O)[C@@H](O)[C@@H](CO)O[C@@H]1CCCOCCOCCNC(=O)NCCCC(CCCNC(=O)NCCOCCOCCC[C@H]1O[C@H](CO)[C@H](O)[C@H](O)[C@H]1NC(C)=O)(CCCNC(=O)NCCOCCOCCC[C@H]1O[C@H](CO)[C@H](O)[C@H](O)[C@H]1NC(C)=O)NC(=O)NCCOCCOCCOCCNC(=O)CBr [Compound 2321] | 13.2 | 4.1 | 2.4 | 49.3 | 80.7 | 320.7 | 1.1 | 3.7 | 4.0
CCC[C@H]1O[C@H](CO)[C@H](O)[C@H](O)[C@H]1Nc1nccc(OCCOCCOCCNC(=O)NCCCC(CCCNC(=O)NCCOCCOCCOc2ccnc(N[C@@H]3[C@@H](O)[C@@H](O)[C@@H](CO)O[C@@H]3CCC)n2)(CCCNC(=O)NCCOCCOCCOc2ccnc(N[C@@H]3[C@@H](O)[C@@H](O)[C@@H](CO)O[C@@H]3CCC)n2)NC(=O)CCOCCOCCOCCNS(=O)(=O)c2ccc(N3C(=O)C=CC3=O)cc2)n1 [Compound 2330] | 8.1 | 2.4 | 2.8 | 42.9 | 54.5 | 166.6 | 1.1 | 2.9 | 3.0
O=C(CCOCCOCCOCCNS(=O)(=O)c1ccc(N2C(=O)C=CC2=O)cc1)NC(CCCNC(=O)NCCOCCOCCOCc1csc(N[C@H]2CO[C@H](CO)[C@H](O)[C@@H]2O)n1)(CCCNC(=O)NCCOCCOCCOCc1csc(N[C@H]2CO[C@H](CO)[C@H](O)[C@@H]2O)n1)CCCNC(=O)NCCOCCOCCOCc1csc(N[C@H]2CO[C@H](CO)[C@H](O)[C@@H]2O)n1 [Compound 2310] | 4.3 | 2.4 | 4.0 | 16.6 | 30.3 | 127.9 | 1.1 | 2.0 | 2.3
COC[C@H]1OC[C@H](Nc2nc(OCCOCCOCCNC(=O)NCCCC(CCCNC(=O)NCCOCCOCCOc3cc(C(F)(F)F)nc(N[C@H]4CO[C@H](COC)[C@H](O)[C@@H]4O)n3)(CCCNC(=O)NCCOCCOCCOc3cc(C(F)(F)F)nc(N[C@H]4CO[C@H](COC)[C@H](O)[C@@H]4O)n3)NC(=O)CCOCCOCCOCCNS(=O)(=O)c3ccc(N4C(=O)C=CC4=O)cc3)cc(C(F)(F)F)n2)[C@@H](O)[C@H]1O [Compound 2309] | 6.7 | 3.1 | 4.1 | 27.1 | 38.9 | 201.6 | 1.1 | 2.5 | 3.0
CN1CCN(C[C@H]2OC[C@H](Nc3nc(OCCOCCOCCNC(=O)NCCCC(CCCNC(=O)NCCOCCOCCOc4cc(C(F)(F)F)nc(N[C@H]5CO[C@H](CN6CCN(C)CC6)[C@H](O)[C@@H]5O)n4)(CCCNC(=O)NCCOCCOCCOc4cc(C(F)(F)F)nc(N[C@H]5CO[C@H](CN6CCN(C)CC6)[C@H](O)[C@@H]5O)n4)NC(=O)CCOCCOCCOCCNS(=O)(=O)c4ccc(N5C(=O)C=CC5=O)cc4)cc(C(F)(F)F)n3)[C@@H](O)[C@H]2O)CC1 [Compound 2312] | 11.1 | 4.2 | 4.1 | 44.5 | 64.9 | 242.9 | 1.0 | 3.0 | 3.5
O=C(CCOCCOCCOCCNS(=O)(=O)c1ccc(N2C(=O)C=CC2=O)cc1)NC(CCCNC(=O)NCCOCCOCCCc1cncc(N[C@H]2CO[C@H](CO)[C@H](O)[C@@H]2O)n1)(CCCNC(=O)NCCOCCOCCCc1cncc(N[C@H]2CO[C@H](CO)[C@H](O)[C@@H]2O)n1)CCCNC(=O)NCCOCCOCCCc1cncc(N[C@H]2CO[C@H](CO)[C@H](O)[C@@H]2O)n1 [Compound 2303] | 10.2 | 3.7 | 3.6 | 52.7 | 70.6 | 232.7 | 1.1 | 3.6 | 3.4
CC(=O)N[C@@H]1[C@@H](O)[C@@H](O)[C@@H](CO)O[C@@H]1CCCOCCOCCNC(=O)NCCCC(CCCNC(=O)NCCOCCOCCC[C@H]1O[C@H](CO)[C@H](O)[C@H](O)[C@H]1NC(C)=O)(CCCNC(=O)NCCOCCOCCC[C@H]1O[C@H](CO)[C@H](O)[C@H](O)[C@H]1NC(C)=O)NC(=O)NCCOCCOCCOCCNS(=O)(=O)c1ccc(N2C(=O)C=CC2=O)cc1 [Compound 2315] | 15.6 | 4.0 | 4.5 | 48.8 | 77.7 | 275.7 | 1.1 | 3.1 | 3.3
CC(=O)N[C@@H]1[C@@H](O)[C@@H](O)[C@@H](CO)O[C@@H]1CCCOCCOCCNC(=O)NCCCC(CCCNC(=O)NCCOCCOCCC[C@H]1O[C@H](CO)[C@H](O)[C@H](O)[C@H]1NC(C)=O)(CCCNC(=O)NCCOCCOCCC[C@H]1O[C@H](CO)[C@H](O)[C@H](O)[C@H]1NC(C)=O)NC(=O)NCOCCOCCOCCNS(=O)(=O)c1ccc(N2C(=O)C=CC2=O)cc1 [Compound 2313] | 13.0 | 4.1 | 7.5 | 36.4 | 89.1 | 259.1 | 1.0 | 3.2 | 3.5
